Measurements: patent US7632844B2, “2-hydroxy-6-phenylphenanthridines as PDE-4 inhibitors” (Nycomed GmbH, priority 2002, dated 2009)

What was measured:
[1] = system: PDE4 (cytosol from human neutrophils); assay: Inhibition of PDE4 activity, Method a ([3H]cAMP hydrolysis, cytosol from human neutrophils); type: biochemical; set-up: unit not given here; conditions: 0.5 μM cAMP, Motapizone 1 μM
Experimental: PDE4 activity was determined as described by Thompson et al. (Adv Cycl Nucl Res 10: 69-92, 1979) with some modifications (Bauer and Schwabe, Naunyn-Schmiedeberg's Arch Pharmacol 311: 193-198, 1980). At a final assay volume of 200 μl (96 well microtiter plates) the assay mixture contained 20 mM Tris (pH 7.4), 5 mM MgCl2, 0.5 μM cAMP, [^3H]cAMP (about 30,000 cpm/assay), the test compound and an aliquot of cytosol from human neutrophils which mainly contains PDE4 activity as described by Schudt et al. (Naunyn-Schmiedeberg's Arch Pharmacol 344: 682-690, 1991); the PDE3-specific inhibitor Motapizone (1 μM) was included to suppress PDE3 activity originating from contaminating platelets. Serial dilutions of the compounds were prepared in DMSO and further diluted 1:100 (v/v) in the assays to obtain the desired final concentrations of the inhibitors at a DMSO concentration of 1% (v/v) which by itself only slightly affected PDE4 activity.
After preincubation for 5 min at 37° C., the reaction was started by the addition of substrate (cAMP) and the assays were incubated for further 15 min at 37° C. 50 μl of 0.2 N HCl was added to stop the reaction and the assays were left on ice for about 10 min. Following incubation with 25 μg 5′-nucleotidase (Crotalus atrox snake venom) for 10 min at 37° C., the assays were loaded on QAE Sephadex A-25 (1 ml bed volume). The columns were eluted with 2 ml of 30 mM ammonium formiate (pH 6.0) and the eluate was counted for radioactivity. Results were corrected for blank values (measured in the presence of denatured protein) which were below 5% of total radioactivity. […] The IC50-values for the compounds according to the invention for the inhibition of the PDE4 activity were determined from the concentration-inhibition curves by nonlinear-regression.

For `COc1cc2c(cc1OC)C1CC(OC(C)=O)CCC1N=C2c1ccc([N+](=O)[O-])cc1` (racemic) [Compound 5, (±)-Acetic acid (2RS,4aRS,10bRS)-6-(4-nitrophenyl)-8,9-dimethoxy-(1,2,3,4,4a,10b)-hexahydrophenanthridin-2-yl ester], the “Inhibition of the PDE4 activity, −log IC50” value (from here on “Inhibition … −log IC50”) [1] was 7.09 and the melting point was 77 to 88 °C.

In the case of `COc1cc2c(cc1OC)C1CC(OC(C)=O)CCC1N=C2c1ccc(OCC2CC2)c(OCC2CC2)c1` (racemic) [Compound 6, (±)-Acetic acid (2SR,4aRS,10bRS)-6-(3,4-bis-cyclopropylmethoxyphenyl)-8,9-dimethoxy-(1,2,3,4,4a,10b)-hexahydrophenanthridin-2-yl ester], the “Inhibition … −log IC50” value [1] is reported as 7.26.

In the case of `COc1cc2c(cc1OC)C1CC(O)CCC1N=C2c1ccc(OCC2CC2)c(OCC2CC2)c1` (racemic) [Compound 7, (±)-(2RS,4aRS,10bRS)-6-(3,4-Bis-cyclopropylmethoxyphenyl)-8,9-dimethoxy-(1,2,3,4,4a,10b)-hexahydrophenanthridin-2-ol], the “Inhibition … −log IC50” value [1] is reported as 8.98 and the melting point is reported as 83 to 92 °C.

For `COC(=O)c1ccc(C2=NC3CCC(O)CC3c3cc(OC)c(OC)cc32)cc1` (racemic) [Compound 8, (±)-(2RS,4aRS,10bRS)-6-(4-Methoxycarbonylphenyl)-8,9-dimethoxy-(1,2,3,4,4a,10b)-hexahydrophenanthridin-2-ol], the “Inhibition … −log IC50” value [1] was 9.21 and the melting point was 94 to 105 °C.

In the case of `COc1cc2c(cc1OC)C1CC(O)CCC1N=C2c1ccc(N(C)C)cc1` (racemic) [Compound 9, (±)-(2RS,4aRS,10bRS)-6-(4-Dimethylaminophenyl)-8,9-dimethoxy-(1,2,3,4,4a,10b)-hexahydrophenanthridin-2-ol], the “Inhibition … −log IC50” value [1] is reported as 7.13 and the melting point is reported as 115 to 121 °C.

For `COc1ccc(C2=NC3CCC(O)CC3c3cc(OC)c(OC)cc32)cc1OC` (racemic) [Compound 10, (±)-(2RS,4aRS,10bRS)-6-(3,4-Dimethoxyphenyl)-8,9-dimethoxy-(1,2,3,4,4a,10b)-hexahydrophenanthridin-2-ol], the “Inhibition … −log IC50” value [1] was 8.71 and the melting point was 104 to 110 °C.

For `COc1cc2c(cc1OC)C1CC(O)CCC1N=C2c1ccc([N+](=O)[O-])cc1` (racemic) [Compound 11, (±)-(2RS,4aRS, 10bRS)-6-(4-Nitrophenyl)-8,9-dimethoxy-(1,2,3,4,4a,10b)-hexahydrophenanthridin-2-ol], the “Inhibition … −log IC50” value [1] was 9.11 and the melting point was 178 to 181 °C.

In the case of `COc1cc2c(cc1OC)C1CC(O)CCC1N=C2c1ccc(C(=O)O)cc1` (racemic) [Compound 12, (±)-(2RS,4aRS,10bRS)-6-(4-Carboxyphenyl)-8,9-dimethoxy-(1,2,3,4,4a,10b)-hexahydro-phenanthridin-2-ol], the “Inhibition … −log IC50” value [1] is reported as 8.25 and the melting point is reported as 172 to 183 °C.

For `COc1cc2c(cc1OC)C1CC(O)CCC1N=C2c1ccc(OCC2CC2)c(OCC2CC2)c1` (racemic) [Compound 13, (±)-(2SR,4aRS, 10bRS)-6-(3,4-Bis-cyclopropylmethoxyphenyl)-8,9-dimethoxy-(1,2,3,4,4a,10b)-hexahydrophenanthridin-2-ol], the “Inhibition … −log IC50” value [1] was 8.12 and the melting point was 114 to 118 °C.
